Read-outs that look alike come from different tables or passages of the source.
Columns and labels:
Y. pseudotuberculosis = assay: microbe, parasite or virus in culture; details: Yersinia pseudotuberculosis, J774, read-out: % Cytotoxicity
P. aeruginosa = P. aeruginosa cytotoxicity whole cell assay (J774 cells, LDH release); details: relative to vehicle treated cells infected with wild type P. aeruginosa
ExsA = target: T1, ExsA (Pseudomonas aeruginosa, UniProt P26993); assay: Chemiluminescence-based ExsA-DNA binding assay; set-up: species or system P. aeruginosa; details: Table 7, cell-free system; read-out: ExsA EC50
T1 construct: made in house
T1 sequence (P26993 1-278): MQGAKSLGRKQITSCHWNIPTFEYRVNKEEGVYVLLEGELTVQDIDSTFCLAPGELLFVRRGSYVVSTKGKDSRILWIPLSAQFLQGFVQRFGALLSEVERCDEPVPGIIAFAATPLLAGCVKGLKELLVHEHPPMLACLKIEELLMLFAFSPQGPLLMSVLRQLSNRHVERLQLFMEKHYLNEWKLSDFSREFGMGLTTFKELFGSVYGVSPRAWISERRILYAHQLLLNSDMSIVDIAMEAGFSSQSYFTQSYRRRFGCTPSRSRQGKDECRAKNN

LcrF (VirF) = LcrF (VirF) (Yersinia pestis, UniProt P28808); assay: biochemical; format: binding, Y. pseudotuberculosis
[1] = EC50 for inhibition of LcrF(VirF)-DNA binding
[2] = read-out: EC50 for inhibition of LcrF(VirF)-DNA binding

Chain of LcrF (VirF) (P28808 whole entry, looked up): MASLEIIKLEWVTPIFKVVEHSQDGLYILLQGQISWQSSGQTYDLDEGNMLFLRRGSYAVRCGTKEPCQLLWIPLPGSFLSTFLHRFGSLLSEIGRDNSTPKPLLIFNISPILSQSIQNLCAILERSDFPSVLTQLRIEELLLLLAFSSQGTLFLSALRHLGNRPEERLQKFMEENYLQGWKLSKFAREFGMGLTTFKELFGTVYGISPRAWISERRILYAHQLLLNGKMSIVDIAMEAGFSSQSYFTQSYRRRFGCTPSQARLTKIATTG

Row | SMILES | activity at 50 µg/mL (Y. pseudotuberculosis) [%] | Cytotoxicity at 50 μg/mL Pseudomonas (P. aeruginosa) | EC50 (ExsA) [µM] | EC50 (LcrF (VirF); [1]) [µM] | EC50 (LcrF (VirF); [2]) [µM]
1 | N#Cc1ccc(C(=O)Nc2ccc(-c3nc4ccc(C#N)cc4n3O)cc2)cc1 [CO] | 75 to 99 | * (reduced P. aeruginosa cytotoxicity to 99-75% of untreated, wild type levels at 50 mg/mL) | – | – | –
2 | O=C(/C=C/c1ccc(F)cc1)Nc1ccc(-c2nc3ccc([N+](=O)[O-])cc3n2OCP(=O)(O)O)cc1 [DW, (2-{4-[(E)-3-(4-Fluoro-phenyl)-acrloylamino]-phenyl}-6-nitro-benzoimidazol-1-yloxymethyl)-phosphonic acid] | 75 to 99 | * (reduced P. aeruginosa cytotoxicity to 99-75% of untreated, wild type levels at 50 mg/mL) | – | – | –
3 | O=C(/C=C/c1ccc(F)cc1)Nc1ccc(-c2nc3ccc([N+](=O)[O-])cc3n2O)cn1 [DY] | < 75 | * (reduced P. aeruginosa cytotoxicity to 99-75% of untreated, wild type levels at 50 mg/mL) | – | – | –
4 | O=C(/C=C/c1ccc(F)cc1F)Nc1ccc(-c2nc3ccc([N+](=O)[O-])cc3n2O)nc1 [EA] | < 75 | * (reduced P. aeruginosa cytotoxicity to 99-75% of untreated, wild type levels at 50 mg/mL) | – | – | –
5 | O=C(/C=C/c1ccc(F)cc1F)Nc1ccc(-c2nc3ccc([N+](=O)[O-])cc3n2O)cn1 [EB] | < 75 | * (reduced P. aeruginosa cytotoxicity to 99-75% of untreated, wild type levels at 50 mg/mL) | – | – | –
6 | CCOP(=O)(Cc1cc(/C=C/C(=O)Nc2ccc(-c3nc4ccc([N+](=O)[O-])cc4n3O)cc2)ccc1F)OCC [EF] | < 75 | * (reduced P. aeruginosa cytotoxicity to 99-75% of untreated, wild type levels at 50 mg/mL) | – | – | –
7 | Cc1cc2nc(-c3ccc(NC(=O)/C=C/c4ccc(F)cc4)cc3)n(O)c2cc1[N+](=O)[O-] [EO, (E)-3-(4-Fluoro-phenyl)-N-[4-(1-hydroxy-5-methyl-6-nitro-1H-benzoimidazol-2-yl)-phenyl]-acrylamide] | 75 to 99 | ** (reduced P. aeruginosa cytotoxicity below 75% of untreated, wild type levels at 50 mg/mL) | – | – | –
8 | CC(=O)c1ccc(C(=O)Nc2ccc(-c3nc4cc(C)c([N+](=O)[O-])cc4n3O)cc2)cc1 [EQ] | < 75 | * (reduced P. aeruginosa cytotoxicity to 99-75% of untreated, wild type levels at 50 mg/mL) | – | – | –
9 | O=C(/C=C/c1ccc(F)cc1)Nc1ccc(-c2nc3cc(F)c([N+](=O)[O-])cc3n2O)cc1 [FA, N-[4-(5-Fluoro-1-hydroxy-6-nitro-1H-benzoimidazol-2-yl)-phenyl]-3-(4-fluoro-cinnamyl)-amide] | – | ** (reduced P. aeruginosa cytotoxicity below 75% of untreated, wild type levels at 50 mg/mL) | 10 to 25 | > 25 | –
10 | O=C(/C=C/c1ccc(F)cc1)Nc1ccc(-c2nc3ccc(-n4ccnc4)cc3n2O)cc1 [FT] | – | * (reduced P. aeruginosa cytotoxicity to 99-75% of untreated, wild type levels at 50 mg/mL) | 10 to 25 | > 25 | –
11 | CC(=O)c1ccc(/C=C/C(=O)Nc2ccc(-c3nc4cc(OCCN5CCOCC5)c([N+](=O)[O-])cc4n3O)cc2)cc1 [FV] | – | ** (reduced P. aeruginosa cytotoxicity below 75% of untreated, wild type levels at 50 mg/mL) | > 25 | – | > 25
12 | CC(=O)c1ccc(/C=C/C(=O)Nc2ccc(-c3nc4ccc(C#N)cc4n3O)cc2)cc1 [FW] | – | ** (reduced P. aeruginosa cytotoxicity below 75% of untreated, wild type levels at 50 mg/mL) | 10 to 25 | 10 to 25 | –
13 | O=C(/C=C/c1ccc(F)cc1)Nc1ccc(-c2nc3ccc(-n4cccn4)cc3n2O)cc1 [FX, (E)-3-(4-Fluoro-phenyl)-N-[4-(1-hydroxy-6-pyrazol-1-yl-1H-benzoimidazol-2-yl)-phenyl]-acrylamide] | – | * (reduced P. aeruginosa cytotoxicity to 99-75% of untreated, wild type levels at 50 mg/mL) | > 25 | > 25 | –
14 | CC(=O)c1ccc(C(=O)Nc2ccc(-c3nc4ccc(-n5cccn5)cc4n3O)cc2)cc1 [FY, 4-Acetyl-N-[4-(1-hdroxyy-6-pyrazol-1-yl-1H-benzoimidazol-2-yl)-phenyl]-benzamide] | – | * (reduced P. aeruginosa cytotoxicity to 99-75% of untreated, wild type levels at 50 mg/mL) | > 25 | – | > 25
15 | N#Cc1ccc2nc(-c3ccc(NC(=O)c4ccc(-n5ccnc5)cc4)cc3)n(O)c2c1 [GA] | – | ** (reduced P. aeruginosa cytotoxicity below 75% of untreated, wild type levels at 50 mg/mL) | 10 to 25 | 10 to 25 | –
16 | CC(=O)c1ccc(/C=C/C(=O)Nc2ccc(-c3nc4ccc(C(=O)O)cc4n3O)cc2)cc1 [GL] | – | ** (reduced P. aeruginosa cytotoxicity below 75% of untreated, wild type levels at 50 mg/mL) | > 25 | – | –
17 | CC(=O)c1ccc(/C=C/C(=O)Nc2ccc(-c3nc4ccc([N+](=O)[O-])cc4n3O)cc2)cn1 [GN] | – | ** (reduced P. aeruginosa cytotoxicity below 75% of untreated, wild type levels at 50 mg/mL) | < 10 | – | –
18 | CC(=O)c1ccc(/C=C/C(=O)N(CC(=O)O)c2ccc(-c3nc4ccc(C#N)cc4n3O)cc2)cc1 [GO, {[(E)-3-(4-Acetyl-phenyl)-acryloyl]-[4-(6-cyano-1-hydroxy-1H-benzoimidazol-2-yl)-phenyl]-amino}-acetic acid] | – | * (reduced P. aeruginosa cytotoxicity to 99-75% of untreated, wild type levels at 50 mg/mL) | > 25 | – | –
19 | CC(=O)c1ccc(/C=C/C(=O)N(CC(N)=O)c2ccc(-c3nc4ccc([N+](=O)[O-])cc4n3O)cc2)cc1 [GP, (E)-3-(4-Acetyl-phenyl)-N-carbamoylmethyl-N-[4-(1-hydroxy-6-nitro-1H-benzoimidazol-2-yl)-phenyl]-acrylamide] | – | * (reduced P. aeruginosa cytotoxicity to 99-75% of untreated, wild type levels at 50 mg/mL) | > 25 | – | –
20 | CC(=O)c1ccc(/C=C/C(=O)N(CC(N)=O)c2ccc(-c3nc4ccc(C#N)cc4n3O)cc2)cc1 [GQ] | – | * (reduced P. aeruginosa cytotoxicity to 99-75% of untreated, wild type levels at 50 mg/mL) | > 25 | – | –
21 | CC(=O)c1ccc(/C=C/C(=O)Nc2ccc(-c3nc4ccc(F)cc4n3O)cc2)cc1 [GR] | – | * (reduced P. aeruginosa cytotoxicity to 99-75% of untreated, wild type levels at 50 mg/mL) | 10 to 25 | – | –
22 | O=C(/C=C/c1ccc(-n2ccnc2)nc1)Nc1ccc(-c2nc3ccc([N+](=O)[O-])cc3n2O)cc1 [GS] | – | ** (reduced P. aeruginosa cytotoxicity below 75% of untreated, wild type levels at 50 mg/mL) | 10 to 25 | – | –
23 | O=C(/C=C/c1ccc(C(F)(F)F)nc1)Nc1ccc(-c2nc3ccc([N+](=O)[O-])cc3n2O)cc1 [GT] | – | ** (reduced P. aeruginosa cytotoxicity below 75% of untreated, wild type levels at 50 mg/mL) | < 10 | – | –
24 | CS(=O)(=O)c1ccc(/C=C/C(=O)Nc2ccc(-c3nc4ccc([N+](=O)[O-])cc4n3O)cc2)cc1 [GU] | – | ** (reduced P. aeruginosa cytotoxicity below 75% of untreated, wild type levels at 50 mg/mL) | < 10 | – | –
25 | N#Cc1ccc2nc(-c3ccc(NC(=O)/C=C/c4ccc(-n5ccnc5)nc4)cc3)n(O)c2c1 [GV] | – | ** (reduced P. aeruginosa cytotoxicity below 75% of untreated, wild type levels at 50 mg/mL) | > 25 | – | –

From patent publication US20090131481A1, “Transcription Factor Modulating Compounds and Methods of Use Thereof” (Paratek Pharmaceuticals, Inc., published 2009)
